Laboratory results as given in ChEMBL document CHEMBL5214935, “Discovery of a potent M5 antagonist with improved clearance profile. Part 1: Piperidine amide-based antagonists” (Bioorg Med Chem Lett, 2022).
Residue numbers refer to the chain shown, from its start.

Key:
[1] = biological target: T1, Muscarinic acetylcholine receptor M5 (Homo sapiens, UniProt P08912); assay: Antagonist activity at human muscarinic M5 receptor expressed in CHO cells in the presence of acetylcholine by calcium mobilisation assay; type: functional, cell-based
T1 sequence (P08912 whole entry): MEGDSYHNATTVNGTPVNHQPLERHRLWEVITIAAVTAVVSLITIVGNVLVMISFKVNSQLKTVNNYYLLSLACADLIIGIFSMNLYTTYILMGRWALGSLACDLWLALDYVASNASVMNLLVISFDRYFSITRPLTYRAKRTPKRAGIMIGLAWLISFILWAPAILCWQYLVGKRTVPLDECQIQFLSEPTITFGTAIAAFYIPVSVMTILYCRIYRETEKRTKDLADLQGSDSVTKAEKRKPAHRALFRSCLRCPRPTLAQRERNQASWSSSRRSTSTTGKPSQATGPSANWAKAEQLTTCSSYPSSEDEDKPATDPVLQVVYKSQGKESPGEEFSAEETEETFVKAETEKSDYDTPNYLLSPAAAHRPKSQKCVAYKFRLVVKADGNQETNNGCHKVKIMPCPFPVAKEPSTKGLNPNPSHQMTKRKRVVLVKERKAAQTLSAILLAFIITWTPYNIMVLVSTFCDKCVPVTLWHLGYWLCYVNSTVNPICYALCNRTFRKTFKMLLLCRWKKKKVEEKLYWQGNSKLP

[2] = biological target: T2, Muscarinic acetylcholine receptor M5 (Homo sapiens) (UniProt P08912); assay: Antagonist activity at human muscarinic M5 receptor expressed in CHO cells assessed as minimal acetylcholine response by calcium mobilisation assay relative to control; type: functional, cell-based; parameters: concentration or dose not given beside the values
T2 sequence (whole entry): T1 sequence (P08912 whole entry)

[3] = Intrinsic clearance in human; type: ADME
[4] = Intrinsic clearance in rat; type: ADME
[5] = biological target: T3, Muscarinic acetylcholine receptor M1 (Homo sapiens, UniProt P11229); assay: Antagonist activity at human muscarinic M1 receptor; type: functional
T3 sequence (P11229 whole entry): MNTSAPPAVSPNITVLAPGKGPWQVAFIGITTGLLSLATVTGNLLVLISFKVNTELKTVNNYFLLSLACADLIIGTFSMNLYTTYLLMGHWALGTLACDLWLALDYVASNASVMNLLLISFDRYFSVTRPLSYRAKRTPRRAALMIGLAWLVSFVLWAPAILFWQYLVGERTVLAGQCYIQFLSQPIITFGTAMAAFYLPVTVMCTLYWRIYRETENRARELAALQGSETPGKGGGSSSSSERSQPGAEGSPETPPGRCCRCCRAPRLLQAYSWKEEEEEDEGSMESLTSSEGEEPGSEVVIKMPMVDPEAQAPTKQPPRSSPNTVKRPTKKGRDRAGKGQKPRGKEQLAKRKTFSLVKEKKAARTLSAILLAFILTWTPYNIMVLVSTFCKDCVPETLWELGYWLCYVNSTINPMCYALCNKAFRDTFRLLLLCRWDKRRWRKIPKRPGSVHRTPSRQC

[6] = biological target: T4, Muscarinic acetylcholine receptor M1 (Rattus norvegicus) (UniProt P08482); assay: Antagonist activity at rat muscarinic M1 receptor expressed in CHO cells assessed as minimal acetylcholine response by calcium mobilisation assay relative to control; type: functional, cell-based; parameters: scale not given: the % may be the effect or the level left; settings: filed as antagonist
T4 sequence (whole entry): T3 sequence (P11229 whole entry) with A5V, T254S, P309S, R320K, A337G, I413V

[7] = biological target: T5, Muscarinic acetylcholine receptor M1 (Rattus norvegicus, UniProt P08482); assay: Antagonist activity at rat muscarinic M1 receptor expressed in CHO cells in the presence of acetylcholine by calcium mobilisation assay; type: functional, cell-based
T5 sequence (P08482 whole entry): T3 sequence (P11229 whole entry) with A5V, T254S, P309S, R320K, A337G, I413V

[8] = Unbound fraction in rat plasma; type: ADME, cell-free
[9] = Unbound fraction in human plasma; type: ADME, cell-free
[10] = Unbound fraction in rat brain; type: ADME, tissue-based
[11] = biological target: T6, Muscarinic acetylcholine receptor M5 (Rattus norvegicus, UniProt P08911); assay: Antagonist activity at rat muscarinic M5 receptor; type: functional
T6 sequence (P08911 whole entry): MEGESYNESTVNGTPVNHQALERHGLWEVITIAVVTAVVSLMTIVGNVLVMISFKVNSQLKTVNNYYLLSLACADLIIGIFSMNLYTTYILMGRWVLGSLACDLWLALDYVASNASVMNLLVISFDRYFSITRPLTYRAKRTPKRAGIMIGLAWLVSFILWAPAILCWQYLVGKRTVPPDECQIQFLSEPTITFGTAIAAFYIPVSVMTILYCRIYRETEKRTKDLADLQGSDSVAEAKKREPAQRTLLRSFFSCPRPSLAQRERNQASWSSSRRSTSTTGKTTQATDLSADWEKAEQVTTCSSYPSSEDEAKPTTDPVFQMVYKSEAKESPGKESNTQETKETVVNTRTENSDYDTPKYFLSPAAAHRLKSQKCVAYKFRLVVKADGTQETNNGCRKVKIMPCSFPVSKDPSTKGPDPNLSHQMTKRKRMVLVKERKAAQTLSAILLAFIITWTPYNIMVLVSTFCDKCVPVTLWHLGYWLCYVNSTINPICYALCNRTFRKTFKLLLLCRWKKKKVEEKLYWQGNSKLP

[12] = biological target: T7, Muscarinic acetylcholine receptor M5 (Rattus norvegicus) (UniProt P08911); assay: Antagonist activity at rat muscarinic M5 receptor assessed as minimal acetylcholine response relative to control; type: functional; parameters: scale not given: the % may be the effect or the level left; settings: filed as antagonist
T7 sequence (whole entry): T6 sequence (P08911 whole entry)

[13] = biological target: T3, Muscarinic acetylcholine receptor M1; assay: Antagonist activity at human muscarinic M1 receptor expressed in CHO cells in the presence of acetylcholine by calcium mobilisation assay; type: functional, cell-based
[14] = biological target: T8, Muscarinic acetylcholine receptor M1 (Homo sapiens) (UniProt P11229); assay: Antagonist activity at human muscarinic M1 receptor expressed in CHO cells assessed as minimal acetylcholine response by calcium mobilisation assay; type: functional, cell-based; parameters: scale not given: the % may be the effect or the level left
T8 sequence (whole entry): T3 sequence (P11229 whole entry)

P-glycoprotein (human) = assay: Efflux ratio of permeability in MDCK-MDR1 cells expressing human P-glycoprotein; type: ADME, cell-based, Canis lupus familiaris; settings: dog
[15] = Apparent permeability in MDCK-MDR1 cells; type: ADME, cell-based, Canis lupus familiaris; settings: dog
[16] = Clearance in rat plasma; type: ADME, cell-free
[17] = Volume of distribution at steady state in rat; type: ADME; settings: in vivo, read-out: Vdss
[18] = Elimination half life in rat; type: ADME; settings: in vivo, read-out: beta t1/2

| IC50 [1] [nM] | Activity ([2]; filed as antagonist) [%] | CLint scaled [3] [mL/min/kg] | CLint scaled [4] [mL/min/kg] | SMILES | other results |
| --- | --- | --- | --- | --- | --- |
| 109 | 3 | 263 | 1020 | CC1COc2ccc(S(=O)(=O)N3CCC(C(=O)Nc4ccc5scnc5c4)CC3)cc21 (racemic) | – |
| 94 | 3 | 114 | 520 | C[C@@H]1C[C@@H](C(=O)Nc2ccc3scnc3c2)CCN1S(=O)(=O)c1ccc2c(c1)CCO2 (racemic) | – |
| 2800 | – | – | – | O=C(Nc1ccc2scnc2c1)C1CCN(S(=O)(=O)c2ccc(Cl)s2)CC1 | IC50 [5]: > 10000 nM |
| 266 | 2 | 36 | 81 | O=C(Nc1ccc2scnc2c1)C1CCN(S(=O)(=O)c2ccc3ncsc3c2)CC1 | – |
| 168 | 3 | 21 | 62 | O=C(Nc1ccc2scnc2c1)C1CCN(S(=O)(=O)c2ccc(Cl)nc2)CC1 | – |
| 143 | 10 | 108 | 804 | O=C(Nc1ccc2snnc2c1)C1CCN(S(=O)(=O)c2ccc3c(c2)CCO3)CC1 | – |
| 13 | 2 | 6 | 81 | Cc1ncc(S(=O)(=O)N2CC[C@H](C(=O)Nc3ccc4scnc4c3)[C@@H](F)C2)s1 (racemic) | Activity [6]: 3%; IC50 [7]: 300 nM; Fu [8]: 0.007; Fu [9]: 0.02; fraction unbound [10]: 0.06 |
| – | 2 | 20 | 212 | O=C(Nc1ccc2scnc2c1)C1CCN(S(=O)(=O)c2ccc3ncccc3c2)CC1 | – |
| 419 | 3 | 199 | 550 | C[C@@H]1CN(S(=O)(=O)c2ccc3c(c2)CCO3)CC[C@@H]1C(=O)Nc1ccc2scnc2c1 (racemic) | – |
| 309 | 3 | 7 | 260 | Cc1nn(C)cc1S(=O)(=O)N1CC[C@H](C(=O)Nc2ccc3scnc3c2)[C@@H](F)C1 (racemic) | IC50 [11]: 572 nM; Activity [12]: 3%; IC50 [13]: > 10000 nM; Activity [14]: 51%; Fu [8]: 0.02; Fu [9]: 0.26; fraction unbound [10]: 0.17; efflux ratio (P-glycoprotein (human)): 110; Papp [15]: 0.431 10^-6 cm/s |
| 10 | 2 | 6 | 49 | Cn1ncc(S(=O)(=O)N2CC[C@H](C(=O)Nc3ccc4scnc4c3)[C@@H](F)C2)c1Cl (racemic) | Activity [6]: 3%; IC50 [7]: 110 nM; Fu [8]: 0.005; Fu [9]: 0.02; fraction unbound [10]: 0.05 |
| 59 | 2 | 19 | 207 | O=C(Nc1ccc2scnc2c1)C1CCN(S(=O)(=O)c2cccnc2)CC1 | – |
| – | – | – | – | CN(C(=O)C1CCN(S(=O)(=O)c2ccc3c(c2)CCO3)CC1)c1ccc2scnc2c1 | Activity [2]: 51% |
| 1530 | 3 | 79 | 506 | C[C@H]1CN(S(=O)(=O)c2ccc3c(c2)CCO3)CC[C@@H]1C(=O)Nc1ccc2scnc2c1 (racemic) | – |
| – | 3 | 99 | 740 | O=C(Nc1ccc2cccnc2c1)C1CCN(S(=O)(=O)c2ccc3c(c2)CCO3)CC1 | – |
| 594 | 19 | 74 | 426 | Cc1nc2cc(NC(=O)C3CCN(S(=O)(=O)c4ccc5c(c4)CCO5)CC3)ccc2s1 | – |
| – | – | – | 373 | O=C(Nc1ccc2scnc2c1)C1CCN(S(=O)(=O)c2ccc3c(c2)CCO3)CC1 | IC50 [11]: 249 nM; IC50 [5]: 2140 nM |
| – | 2 | 5 | 45 | Cc1nn(C)cc1S(=O)(=O)N1CCC(C(=O)Nc2ccc3scnc3c2)CC1 | Activity [6]: 35%; IC50 [11]: 1330 nM; Activity [12]: 4%; IC50 [7]: > 10000 nM; IC50 [13]: > 10000 nM; Activity [14]: 50%; Fu [8]: 0.03; Fu [9]: 0.14; fraction unbound [10]: 0.2; clearance [16]: 11.1 mL/min/kg; Vd [17]: 0.61 L/kg; half-life [18]: 1.43 h; efflux ratio (P-glycoprotein (human)): 110; Papp [15]: 0.374 10^-6 cm/s |
| – | 3 | 5 | 43 | Cc1ccc(S(=O)(=O)N2CCC(C(=O)Nc3ccc4scnc4c3)CC2)cn1 | – |
| 134 | 2 | 264 | 572 | C[C@@H]1C[C@H](C(=O)Nc2ccc3scnc3c2)CCN1S(=O)(=O)c1ccc2c(c1)CCO2 (racemic) | – |
| > 10000 | 16 | – | – | CC1Cc2cc(S(=O)(=O)N3CCC(C(=O)Nc4ccc5scnc5c4)CC3)ccc2O1 (racemic) | – |
